Test results from US8680113B2, “BMI-1 protein expression modulators” (PTC Therapeutics, Inc., priority 2008, dated 2014).
pEC50, pIC50: −log10 of the molar value. Blank lines part the entries; values can stand above or below the compound they belong to.

Tests used:
Bmi-1 [1] = assay: Cell Model Assay: Bmi-1 expression in KG1; type: cell-based; details: KG1 (acute myelogenous leukemia)
Procedure: (§1) Using assay conditions known to those skilled in the art, the ability of the compounds described herein to reduce Bmi-1 expression in HT1080 (fibrosarcoma), U87-MG (glioblastoma), T98G (glioblastoma), K562 (chronic myelogenous leukemia) and KG1 (acute myelogenous leukemia) cell lines was tested (at test compound concentrations calculated from the ELISA assay data shown in Example 1) compared to puromycin as a control to provide the EC50 values shown in Table 2. The term “ND” means that data was not determined.

Bmi-1 [2] = assay: Cell Model Assay: Bmi-1 expression in K562; type: cell-based; details: K562 (chronic myelogenous leukemia)
Procedure: as §1

Bmi-1 [3] = assay: Sandwich ELISA Assay (Bmi-1 ELISA in HT-1080 cells); type: cell-based, human
Method in brief: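 HT-1080 cells (8000/well) were treated with compounds in 0.5% final DMSO for 40-48 h at 37°C and then lysed. Bmi-1 in lysates was measured by sandwich ELISA: overnight capture at 4°C on mouse monoclonal, rabbit anti-Bmi-1 detection, HRP anti-rabbit, TMB. OD450 was read with an OD570 reference against a recombinant GST-Bmi-1 standard curve (0-8000 pg/mL).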

Bmi-1 [4] = assay: Cell Model Assay: Bmi-1 expression in HT1080; type: cell-based, human; details: HT1080 (fibrosarcoma)
Procedure: as §1

MCL-Jeko = assay: Mantle Cell Lymphoma Assay: cytotoxicity, Jeko; type: cell-based; details: MCL-Jeko, 72 hrs
Description: (§2) MCL cell lines Jeko, Mino, and Rec-1 were provided by American Type Culture Collection: The Bioresource Center (Manassas, Va.). […] Carlsbad, Calif.) in T-75 culture flasks. Cell concentration was maintained between 2 to 3×10^5 cells/mL. Early passage cells (passages 2-4) were used for all experiments. Ficoll-Histopaque density sedimentation (Sigma Aldrich) was used for separation of debris and purification of cell lines prior to experiments. […] The cytotoxic effect of test compounds on the MCL-cell lines was assessed by measuring cell concentration and cell viability using a Beckman Coulter Vi-Cell Counter. Controls and treated cells were harvested and counted at day 3.

MCL-Mino = assay: Mantle Cell Lymphoma Assay: cytotoxicity, Mino; type: cell-based; details: MCL-Mino, 72 hrs
Description: as §2

MCL-Rec1 = assay: Mantle Cell Lymphoma Assay: cytotoxicity, Rec-1; type: cell-based; details: 72 hrs
Description: as §2

MM cell line = assay: Multiple Myeloma Assay; type: cell-based; details: 72 hrs in culture
Bmi-1 [5] = assay: Cell Model Assay: Bmi-1 expression in U87-MG; type: cell-based; details: U87-MG (glioblastoma)
Procedure: as §1

Bmi-1 [6] = assay: Cell Model Assay: Bmi-1 expression in T98G; type: cell-based; details: T98G (glioblastoma)
Procedure: as §1

- pEC50 (Bmi-1 [1]): 7.32
- pEC50 (Bmi-1 [2]): > 8.40
- pIC50 (Bmi-1 [3]): > 6.30
- pEC50 (Bmi-1 [4]): 8.40
Compound: Cc1nc2ccc(Cl)cn2c1-c1csc(Nc2ccc3c(c2)OCO3)n1 [Cpd 30, N-(benzo[d][1,3]dioxol-5-yl)-4-(6-chloro-2-methylimidazo[1,2-a]pyridin-3-yl)thiazol-2-amine]

- pEC50 (Bmi-1 [1]): 6.92
- pEC50 (Bmi-1 [2]): 7.12
- pIC50 (Bmi-1 [3]): > 6.30
- pEC50 (Bmi-1 [4]): 6.51
Compound: COc1cc(Br)c(Nc2nc(-c3cnc4ccc(Cl)cn34)cs2)c(Br)c1 [Cpd 24, 4-(6-chloroimidazo[1,2-a]pyridine-3-yl)-N-(2,6-dibromo-4-methoxyphenyl)thiazol-2-amine]
- Cell Concentration (×10^6) (MCL-Jeko; 0.004 μM): 1.95 ± 0.04 ×10^6
- Cell Concentration (×10^6) (MCL-Jeko; 0.037 μM): 1.94 ± 0.02 ×10^6
- Cell Concentration (×10^6) (MCL-Jeko; 0.11 μM): 1.92 ± 0.01 ×10^6
- Cell Concentration (×10^6) (MCL-Jeko; 0.33 μM): 1.80 ± 0.03 ×10^6
- Cell Concentration (×10^6) (MCL-Jeko; 1 μM): 0.76 ± 0.27 ×10^6
- Cell Concentration (×10^6) (MCL-Jeko; 3 μM): 0.14 ± 0.01 ×10^6
- Cell Concentration (×10^6) (MCL-Mino; 0.004 μM): 0.63 ± 0.01 ×10^6
- Cell Concentration (×10^6) (MCL-Mino; 0.037 μM): 0.63 ± 0.01 ×10^6
- Cell Concentration (×10^6) (MCL-Mino; 0.11 μM): 0.62 ± 0.01 ×10^6
- Cell Concentration (×10^6) (MCL-Mino; 0.33 μM): 0.55 ± 0.01 ×10^6
- Cell Concentration (×10^6) (MCL-Mino; 1 μM): 0.28 ± 0.02 ×10^6
- Cell Concentration (×10^6) (MCL-Mino; 3 μM): 0.05 ± 0.01 ×10^6
- Cell Concentration (×10^6) (MCL-Rec1; MCL-Rec1, 0.004 μM): 0.36 ± 0.02 ×10^6
- Cell Concentration (×10^6) (MCL-Rec1; MCL-Rec1, 0.037 μM): 0.34 ± 0.01 ×10^6
- Cell Concentration (×10^6) (MCL-Rec1; MCL-Rec1, 0.11 μM): 0.34 ± 0.01 ×10^6
- Cell Concentration (×10^6) (MCL-Rec1; MCL-Rec1, 0.33 μM): 0.31 ± 0.01 ×10^6
- Cell Concentration (×10^6) (MCL-Rec1; MCL-Rec1, 1 μM): 0.06 ± 0.01 ×10^6
- Cell Concentration (×10^6) (MCL-Rec1; MCL-Rec1, 3 μM): 0.01 ± 0.00 ×10^6
- Cell Concentration, MM cell line (MM cell line; dose 0.004 μM): 1.37 ± 0.03 ×10^6
- Cell Concentration, MM cell line (MM cell line; dose 0.037 μM): 1.38 ± 0.04 ×10^6
- Cell Concentration, MM cell line (MM cell line; dose 0.11 μM): 1.23 ± 0.01 ×10^6
- Cell Concentration, MM cell line (MM cell line; dose 0.33 μM): 0.59 ± 0.04 ×10^6
- Cell Concentration, MM cell line (MM cell line; dose 1 μM): 0.34 ± 0.14 ×10^6
- Cell Concentration, MM cell line (MM cell line; dose 3 μM): 0.17 ± 0.01 ×10^6

- pEC50 (Bmi-1 [1]): < 5.52
- pEC50 (Bmi-1 [2]): 7.00
- pIC50 (Bmi-1 [3]): > 6.30
Compound: Cc1cc(Br)c(Nc2nc(-c3cnc4ccc(Cl)cn34)cs2)c(Br)c1 [Cpd 25, 4-(6-chloroimidazo[1,2-a]pyridine-3-yl)-N-(2,6-dibromo-4-methylphenyl)thiazol-2-amine]

- pEC50 (Bmi-1 [5]): 6.96
- pEC50 (Bmi-1 [1]): 6.67
- pEC50 (Bmi-1 [6]): > 8.40
- pEC50 (Bmi-1 [2]): 8.00
- pIC50 (Bmi-1 [3]): > 6.30
- pEC50 (Bmi-1 [4]): 7.41
Compound: Cc1nc2ncccn2c1-c1csc(Nc2ccc(N(C)C)cc2)n1 [Cpd 12, N,N-dimethyl-N′-(4-(2-methylimidazo[1,2-a]pyrimidin-3-yl)thiazol-2-yl)benzene-1,4-diamine]

- pEC50 (Bmi-1 [1]): 6.52
- pEC50 (Bmi-1 [2]): 8.30
- pIC50 (Bmi-1 [3]): > 6.30
Compound: Cc1nc2ccc(Cl)cn2c1-c1csc(Nc2ccc(I)cc2)n1 [Cpd 29, 4-(6-chloro-2-methylimidazo[1,2-a]pyridin-3-yl)-N-(4-iodophenyl)thiazol-2-amine]
